Test results as given in patent publication US7795284B2, “4,7-dioxobenzothiazole-2-carboxamide derivatives, their preparation and their therapeutic uses” (Ipsen Pharma S.A.S., priority 2004, dated 2010).
Structures can show the parent of a compound that is named as a salt.

SMILES	melting point
CN(C)CCNC1=CC(=O)c2sc(C(=O)N3CCCC3)nc2C1=O [Example 22, 5-{[2-(dimethylamino)ethyl]amino}-2-(pyrrolidin-1-ylcarbonyl)-1,3-benzothiazole-4,7-dione]	207 to 208 °C
CCNC(=O)c1nc2c(s1)C(=O)C=C(NCCc1ccc(F)cc1)C2=O [Example 39, N-ethyl-5-{[2-(4-fluorophenyl)ethyl]amino}-4,7-dioxo-4,7-dihydro-1,3-benzothiazole-2-carboxamide]	260 to 261 °C
CN(C)CCNC1=CC(=O)c2sc(C(=O)NCC3CCCCC3)nc2C1=O [Example 13, N-(cyclohexylmethyl)-5-{[2-(dimethylamino)ethyl]amino}-4,7-dioxo-4,7-dihydro-1,3-benzothiazole-2-carboxamide]	171 to 172 °C
CN(C)CCNC1=CC(=O)c2nc(C(=O)N3CCCC3)sc2C1=O [Example 34, 6-{[2-(dimethylamino)ethyl]amino}-2-(pyrrolidin-1-ylcarbonyl)-1,3-benzothiazole-4,7-dione]	224 to 225 °C
CN(C)CCNC1=CC(=O)c2sc(C(=O)N3CCN(C(=O)N4CCOCC4)CC3)nc2C1=O [Example 16, 5-{[2-(dimethylamino)ethyl]amino}-2-{[4-(morpholin-4-ylcarbonyl)piperazin-1-yl]carbonyl}-1,3-benzothiazole-4,7-dione]	211 to 212 °C
CN(C)CCNC1=CC(=O)c2sc(C(=O)N3CCOCC3)nc2C1=O [Example 1, 5-{[2-(dimethylamino)ethyl]amino}-2-(morpholin-4-ylcarbonyl)-1,3-benzothiazole-4,7-dione]	207 to 208 °C
CN(C)CCNC1=CC(=O)c2sc(C(=O)NCCOCCOCCNC(=O)OC(C)(C)C)nc2C1=O [Example 2, tert-butyl {2-[2-(2-{[(5-{[2-(dimethylamino)ethyl]amino}-4,7-dioxo-4,7-dihydro-1,3-benzothiazol-2-yl)carbonyl]amino}ethoxy)ethoxy]ethyl}carbamate]	55 to 57 °C
CCNC(=O)c1nc2c(s1)C(=O)C=C(N(C)CCN(C)C)C2=O [Example 38, 5-[[2-(dimethylamino)ethyl](methyl)amino]-N-ethyl-4,7-dioxo-4,7-dihydro-1,3-benzothiazole-2-carboxamide]	163 to 164 °C
CN(C)CCNC1=CC(=O)c2sc(C(=O)NCCCN3CCCC3=O)nc2C1=O [Example 5, 5-{[2-(dimethylamino)ethyl]amino}-4,7-dioxo-N-[3-(2-oxopyrrolidin-1-yl)propyl]-4,7-dihydro-1,3-benzothiazole-2-carboxamide]	154 to 156 °C
COc1ccc(C(=O)N2CCN(C(=O)c3nc4c(s3)C(=O)C=C(NCCN(C)C)C4=O)CC2)cc1 [Example 37, 5-{[2-(dimethylamino)ethyl]amino}-2-{[4-(4-methoxybenzoyl)piperazin-1-yl]carbonyl}-1,3-benzothiazole-4,7-dione]	209 to 210 °C
CN(C)CCNC1=CC(=O)c2sc(C(=O)N3CCN(S(C)(=O)=O)CC3)nc2C1=O [Example 19, 5-{[2-(dimethylamino)ethyl]amino}-2-{[4-(methylsulphonyl)piperazin-1-yl]carbonyl}-1,3-benzothiazole-4,7-dione]	201 to 202 °C
CN(C)CCNC1=CC(=O)c2sc(C(=O)N3CCN(C(=O)C4CCCO4)CC3)nc2C1=O (centres unmarked) [Example 20, 5-{[2-(dimethylamino)ethyl]amino}-2-{[4-(tetrahydrofuran-2-ylcarbonyl)piperazin-1-yl]carbonyl}-1,3-benzothiazole-4,7-dione]	168 to 169 °C
CN(C)CCNC1=C(Br)C(=O)c2sc(C(=O)N3CCN(C(=O)C4CCCO4)CC3)nc2C1=O (centres unmarked) [Example 21, 6-bromo-5-{[2-(dimethylamino)ethyl]amino}-2-{[4-(tetrahydrofuran-2-ylcarbonyl)piperazin-1-yl]carbonyl}-1,3-benzothiazole-4,7-dione]	161 to 162 °C
O=C1C(NCCN2CCCC2)=CC(=O)c2sc(C(=O)N3CCN(C(=O)N4CCOCC4)CC3)nc21 [Example 17, 2-{[4-(morpholin-4-ylcarbonyl)piperazin-1-yl]carbonyl}-5-[(2-pyrrolidin-1-ylethyl)amino]-1,3-benzothiazole-4,7-dione]	193 to 194 °C

Now from value to molecule:

melting point	SMILES
208 to 209 °C	CN(C)CCNC1=CC(=O)c2sc(C(=O)Nc3ccc(F)cc3)nc2C1=O [Example 33, 5-{[2-(dimethylamino)ethyl]amino}-N-(4-fluorophenyl)-4,7-dioxo-4,7-dihydro-1,3-benzothiazole-2-carboxamide]
188 to 189 °C	CN(C)CCNC1=CC(=O)c2sc(C(=O)NCc3ccccc3)nc2C1=O [Example 12, N-benzyl-5-{[2-(dimethylamino)ethyl]amino}-4,7-dioxo-4,7-dihydro-1,3-benzothiazole-2-carboxamide]
163 to 164 °C	CC(C)CNC(=O)c1nc2c(s1)C(=O)C=C(NCCN(C)C)C2=O [Example 7, 5-{[2-(dimethylamino)ethyl]amino}-N-isobutyl-4,7-dioxo-4,7-dihydro-1,3-benzothiazole-2-carboxamide]
207 to 208 °C	COc1ccc(NC(=O)c2nc3c(s2)C(=O)C=C(NCCN(C)C)C3=O)cc1 (as salt: methanesulphonate) [Example 18, 5-{[2-(dimethylamino)ethyl]amino}-N-(4-methoxyphenyl)-4,7-dioxo-4,7-dihydro-1,3-benzothiazole-2-carboxamide]
92 to 94 °C	COCCN(CCOC)C(=O)c1nc2c(s1)C(=O)C=C(NCCN(C)C)C2=O [Example 4, 5-{[2-(dimethylamino)ethyl]amino}-N,N-bis(2-methoxyethyl)-4,7-dioxo-4,7-dihydro-1,3-benzothiazole-2-carboxamide]
192 to 193 °C	COc1ccc2c(c1)CCCN2C(=O)c1nc2c(s1)C(=O)C=C(NCCN(C)C)C2=O [Example 36, 5-{[2-(dimethylamino)ethyl]amino}-2-[(6-methoxy-3,4-dihydroquinolin-1(2H)-yl)carbonyl]-1,3-benzothiazole-4,7-dione]
174 to 175 °C	CCNC(=O)c1nc2c(s1)C(=O)C=C(NCCN(C)C)C2=O [Example 24, 5-{[2-(dimethylamino)ethyl]amino}-N-ethyl-4,7-dioxo-4,7-dihydro-1,3-benzothiazole-2-carboxamide]
220 to 221 °C	CN(C)CCNC1=CC(=O)c2sc(C(=O)Nc3ccc4c(c3)OCO4)nc2C1=O [Example 26, N-1,3-benzodioxol-5-yl-5-{[2-(dimethylamino)ethyl]amino}-4,7-dioxo-4,7-dihydro-1,3-benzothiazole-2-carboxamide]
199 to 200 °C	COc1ccc(NC(=O)c2nc3c(s2)C(=O)C=C(NCCN(C)C)C3=O)cc1F [Example 35, 5-{[2-(dimethylamino)ethyl]amino}-N-(3-fluoro-4-methoxyphenyl)-4,7-dioxo-4,7-dihydro-1,3-benzothiazole-2-carboxamide]
